Non-standard residues stand in square brackets, D forms with d. Residues, ends and D or L forms follow the SMILES beside them. NMeD = CN[C@@H](CC(=O)O)C(=O)O; NMeS = CN[C@@H](CO)C(=O)O
Target: Sushi domains (SD1/2) protein
Assay: Fluorescence polarization (FP) competition assay with AJAP-1probe, calculated Ki
Assay type: binding
Settings: Table 4, truncation and elongation scans of APP epitope; read-out: Ki (nM) mean ± SEM
Procedure, shortened: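 Competition against 25 nM TAMRA-labelled peptide probe binding SD1/2, in PBS pH 7.4 with 1% BSA at rt, read at 530/580 nm. IC50 from sigmoidal dose-response fits, at least triplicate; Ki calculated from IC50 using probe Kd from saturation binding.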

| SMILES | Ki [nM] |
| --- | --- |
| CC(=O)N[C@@H](CCC(=O)O)C(=O)N[C@@H](CCC(=O)O)C(=O)N[C@@H](CC(=O)O)C(=O)N[C@@H](CC(=O)O)C(=O)N[C@@H](CO)C(=O)N[C@@H](CC(=O)O)C(=O)N[C@H](C(=O)N[C@@H](Cc1c[nH]c2ccccc12)C(N)=O)C(C)C (Ac-EEDDSDVW-NH2) | > 62500 |
| CC(=O)N[C@@H](CCC(=O)O)C(=O)N[C@@H](CCC(=O)O)C(=O)N[C@@H](CC(=O)O)C(=O)N[C@@H](CC(=O)O)C(=O)N[C@@H](CO)C(=O)N[C@@H](CC(=O)O)C(=O)N[C@H](C(=O)N[C@@H](Cc1c[nH]c2ccccc12)C(=O)N[C@@H](Cc1c[nH]c2ccccc12)C(N)=O)C(C)C (Ac-EEDDSDVWW-NH2) | 1786 ± 16 |
| CC(=O)N[C@@H](CCC(=O)O)C(=O)N[C@@H](CCC(=O)O)C(=O)N[C@@H](CC(=O)O)C(=O)N[C@@H](CC(=O)O)C(=O)N[C@@H](CO)C(=O)N[C@@H](CC(=O)O)C(=O)N[C@H](C(=O)N[C@@H](Cc1c[nH]c2ccccc12)C(=O)N[C@@H](Cc1c[nH]c2ccccc12)C(=O)NCC(N)=O)C(C)C (Ac-EEDDSDVWWG-NH2) | 12800 ± 415 |
| CC(=O)N[C@@H](CCC(=O)O)C(=O)N[C@@H](CCC(=O)O)C(=O)N[C@@H](CC(=O)O)C(=O)N[C@@H](CC(=O)O)C(=O)N[C@@H](CO)C(=O)N[C@@H](CC(=O)O)C(=O)N[C@H](C(=O)N[C@@H](Cc1c[nH]c2ccccc12)C(=O)N[C@@H](Cc1c[nH]c2ccccc12)C(=O)NCC(=O)NCC(N)=O)C(C)C (Ac-EEDDSDVWWGG-NH2) | 1754 ± 7 |
| CC(=O)N[C@@H](CCC(=O)O)C(=O)N[C@@H](CCC(=O)O)C(=O)N[C@@H](CC(=O)O)C(=O)N[C@@H](CC(=O)O)C(=O)N[C@@H](CO)C(=O)N[C@@H](CC(=O)O)C(=O)N[C@H](C(=O)N[C@@H](Cc1c[nH]c2ccccc12)C(=O)N[C@@H](Cc1c[nH]c2ccccc12)C(=O)NCC(=O)NCC(=O)N[C@@H](C)C(N)=O)C(C)C (Ac-EEDDSDVWWGGA-NH2) | 1020 ± 18 |
| CC(=O)N[C@@H](CCC(=O)O)C(=O)N[C@@H](CCC(=O)O)C(=O)N[C@@H](CC(=O)O)C(=O)N[C@@H](CC(=O)O)C(=O)N[C@@H](CO)C(=O)N[C@@H](CC(=O)O)C(=O)N[C@H](C(=O)N[C@@H](Cc1c[nH]c2ccccc12)C(=O)N[C@@H](Cc1c[nH]c2ccccc12)C(=O)NCC(=O)NCC(=O)N[C@@H](C)C(=O)N[C@@H](CC(=O)O)C(N)=O)C(C)C (Ac-EEDDSDVWWGGAD-NH2) | 534 ± 13 |
| CC(=O)N[C@@H](CCC(=O)O)C(=O)N[C@@H](CCC(=O)O)C(=O)N[C@@H](CC(=O)O)C(=O)N[C@@H](CC(=O)O)C(=O)N[C@@H](CO)C(=O)N[C@@H](CC(=O)O)C(=O)N[C@H](C(=O)N[C@@H](Cc1c[nH]c2ccccc12)C(=O)N[C@@H](Cc1c[nH]c2ccccc12)C(=O)NCC(=O)NCC(=O)N[C@@H](C)C(=O)N[C@@H](CC(=O)O)C(=O)N[C@H](C(N)=O)[C@@H](C)O)C(C)C (Ac-EEDDSDVWWGGADT-NH2) | 585 ± 10 |
| CC(=O)N[C@@H](CCC(=O)O)C(=O)N[C@@H](CCC(=O)O)C(=O)N[C@@H](CC(=O)O)C(=O)N[C@@H](CC(=O)O)C(=O)N[C@@H](CO)C(=O)N[C@@H](CC(=O)O)C(=O)N[C@H](C(=O)N[C@@H](Cc1c[nH]c2ccccc12)C(=O)N[C@@H](Cc1c[nH]c2ccccc12)C(=O)NCC(=O)NCC(=O)N[C@@H](C)C(=O)N[C@@H](CC(=O)O)C(=O)N[C@H](C(=O)N[C@@H](CC(=O)O)C(N)=O)[C@@H](C)O)C(C)C (Ac-EEDDSDVWWGGADTD-NH2) | 341 ± 10 |
| CC(=O)N[C@@H](CCC(=O)O)C(=O)N[C@@H](CCC(=O)O)C(=O)N[C@@H](CC(=O)O)C(=O)N[C@@H](CC(=O)O)C(=O)N[C@@H](CO)C(=O)N[C@@H](CC(=O)O)C(=O)N[C@H](C(=O)N[C@@H](Cc1c[nH]c2ccccc12)C(=O)N[C@@H](Cc1c[nH]c2ccccc12)C(=O)NCC(=O)NCC(=O)N[C@@H](C)C(=O)N[C@@H](CC(=O)O)C(=O)N[C@H](C(=O)N[C@@H](CC(=O)O)C(=O)N[C@@H](Cc1ccc(O)cc1)C(N)=O)[C@@H](C)O)C(C)C (Ac-EEDDSDVWWGGADTDY-NH2) | 301 ± 7 |
| CC(=O)N[C@@H](CCC(=O)O)C(=O)N[C@@H](CCC(=O)O)C(=O)N[C@@H](CC(=O)O)C(=O)N[C@@H](CC(=O)O)C(=O)N[C@@H](CO)C(=O)N[C@@H](CC(=O)O)C(=O)N[C@H](C(=O)N[C@@H](Cc1c[nH]c2ccccc12)C(=O)N[C@@H](Cc1c[nH]c2ccccc12)C(=O)NCC(=O)NCC(=O)N[C@@H](C)C(=O)N[C@@H](CC(=O)O)C(=O)N[C@H](C(=O)N[C@@H](CC(=O)O)C(=O)N[C@@H](Cc1ccc(O)cc1)C(=O)N[C@@H](C)C(N)=O)[C@@H](C)O)C(C)C (Ac-EEDDSDVWWGGADTDYA-NH2) | 299 ± 8 |
| CC(=O)N[C@@H](CCC(=O)O)C(=O)N[C@@H](CCC(=O)O)C(=O)N[C@@H](CC(=O)O)C(=O)N[C@@H](CC(=O)O)C(=O)N[C@@H](CO)C(=O)N[C@@H](CC(=O)O)C(=O)N[C@H](C(=O)N[C@@H](Cc1c[nH]c2ccccc12)C(=O)N[C@@H](Cc1c[nH]c2ccccc12)C(=O)NCC(=O)NCC(=O)N[C@@H](C)C(=O)N[C@@H](CC(=O)O)C(=O)N[C@H](C(=O)N[C@@H](CC(=O)O)C(=O)N[C@@H](Cc1ccc(O)cc1)C(=O)N[C@@H](C)C(=O)N[C@@H](CC(=O)O)C(=O)NCC(N)=O)[C@@H](C)O)C(C)C (Ac-EEDDSDVWWGGADTDYADG-NH2) | 343 ± 17 |
| CC(=O)N[C@@H](CCC(=O)O)C(=O)N[C@@H](CCC(=O)O)C(=O)N[C@@H](CC(=O)O)C(=O)N[C@@H](CC(=O)O)C(=O)N[C@@H](CO)C(=O)N[C@@H](CC(=O)O)C(=O)N[C@H](C(=O)N[C@@H](Cc1c[nH]c2ccccc12)C(=O)N[C@@H](Cc1c[nH]c2ccccc12)C(=O)NCC(=O)NCC(=O)N[C@@H](C)C(=O)N[C@@H](CC(=O)O)C(=O)N[C@H](C(=O)N[C@@H](CC(=O)O)C(=O)N[C@@H](Cc1ccc(O)cc1)C(=O)N[C@@H](C)C(=O)N[C@@H](CC(=O)O)C(=O)NCC(=O)NCC(N)=O)[C@@H](C)O)C(C)C (Ac-EEDDSDVWWGGADTDYADGG-NH2) | 341 ± 6 |
| CC(=O)N[C@@H](CCC(=O)O)C(=O)N[C@@H](CCC(=O)O)C(=O)N[C@@H](CC(=O)O)C(=O)N[C@@H](CC(=O)O)C(=O)N[C@@H](CO)C(=O)N[C@@H](CC(=O)O)C(=O)N[C@H](C(=O)N[C@@H](Cc1c[nH]c2ccccc12)C(=O)N[C@@H](Cc1c[nH]c2ccccc12)C(=O)NCC(=O)NCC(=O)N[C@@H](C)C(=O)N[C@@H](CC(=O)O)C(=O)N[C@H](C(=O)N[C@@H](CC(=O)O)C(=O)N[C@@H](Cc1ccc(O)cc1)C(=O)N[C@@H](C)C(=O)N[C@@H](CC(=O)O)C(=O)NCC(=O)NCC(=O)N[C@@H](CCC(=O)O)C(N)=O)[C@@H](C)O)C(C)C (Ac-EEDDSDVWWGGADTDYADGGE-NH2) | 351 ± 26 |

Same assay, conditions: Table 7, Ala-, D-amino acids and N-methylation scans of APPWT; read-out: Ki (nM) mean ± SEM

| SMILES | Ki [nM] |
| --- | --- |
| CC(=O)N[C@@H](CCC(=O)O)C(=O)N[C@@H](CC(=O)O)C(=O)N[C@@H](CC(=O)O)C(=O)N(C)[C@@H](CO)C(=O)N[C@@H](CC(=O)O)C(=O)N[C@H](C(=O)N[C@@H](Cc1c[nH]c2ccccc12)C(=O)N[C@@H](Cc1c[nH]c2ccccc12)C(=O)NCC(=O)NCC(=O)N[C@@H](C)C(=O)N[C@@H](CC(=O)O)C(=O)N[C@H](C(=O)N[C@@H](CC(=O)O)C(N)=O)[C@@H](C)O)C(C)C (Ac-EDD[NMeS]DVWWGGADTD-NH2) | 1670 ± 32 |
| CC(=O)N[C@@H](CCC(=O)O)C(=O)N[C@@H](CC(=O)O)C(=O)N(C)[C@@H](CC(=O)O)C(=O)N[C@@H](CO)C(=O)N[C@@H](CC(=O)O)C(=O)N[C@H](C(=O)N[C@@H](Cc1c[nH]c2ccccc12)C(=O)N[C@@H](Cc1c[nH]c2ccccc12)C(=O)NCC(=O)NCC(=O)N[C@@H](C)C(=O)N[C@@H](CC(=O)O)C(=O)N[C@H](C(=O)N[C@@H](CC(=O)O)C(N)=O)[C@@H](C)O)C(C)C (Ac-ED[NMeD]SDVWWGGADTD-NH2) | 671 ± 27 |

From patent US20260193293A1, “PEPTIDES CAPABLE OF INHIBITING PROTEIN-PROTEIN INTERACTIONS AT GABAB1A SUBUNIT AND USES THEREOF” (UNIVERSITY OF COPENHAGEN, priority 2022, published 2026)
